# Assay results from patent US11827628B2, “Compositions and methods for inhibition of the JAK pathway” (Rigel Pharmaceuticals, Inc., priority 2005, dated 2023).
# Tested on: up-regulation of ICAM-1 (CD54) by IFNγ in A549 lung epithelial cells
# Test: A549 Epithelial Line Stimulated with IFNγ (ICAM-1 surface expression, FACS)
# Type: cell-based, human
# Conditions: A549 epithelial line stimulated with IFNγ; ICAM-1 expression by FACS; read-out: IC50, Example 43
# In short: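 ICAM-1 (CD54) flow cytometry on live-gated A549 cells, geometric mean versus dose giving EC50. Cells received IFNγ at 75 ng/mL for 24 h after a 1 h compound pre-treatment spanning 30 μM to 14 nM in medium with 5% FBS and 0.3% DMSO.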
row,Compound,IC50
1,"CCN(CC)CCNS(=O)(=O)c1ccc(Nc2ncc(F)c(Nc3ccc(OCc4cc(C)on4)c(C)c3)n2)cc1 [Compound I-245, N2-[4-(2-N,N-Diethylaminoethyl)aminosulfonylphenyl)-5-fluoro-N4-[3-methyl-4-(5-methylisoxazol-3-yl)methyleneoxyphenyl]-2,4-pyrimidinediamine]",16.7 µM
2,"N#CCOc1ccc(Nc2nc(Nc3ccc(Cl)c(S(N)(=O)=O)c3)ncc2F)cc1 [Compound I-21, N2-(3-Aminosulfonyl-4-chlorophenyl)-N4-(4-cyanomethoxy)phenyl-5-fluoro-2,4-pyrimidinediamine]",22.7 µM
3,"CNS(=O)(=O)c1cc(Nc2ncc(F)c(Nc3cccc(OCc4nc(C)no4)c3)n2)ccc1C [Compound I-255, 5-Fluoro-N2-[3-(N-methylaminosulfony)-4-methylphenyl]-N4-[3-(3-methyl-1,2,4-oxadiazol-5-yl)methyleneoxyphenyl]-2,4-pyrimidinediamine]",39.3 µM

# Stronger by IC50, values ahead:
row,IC50,Compound
1,14.7 µM,"CCN(CC)CCNS(=O)(=O)c1cccc(Nc2ncc(F)c(Nc3ccc(OCc4cc(C)on4)c(C)c3)n2)c1 [Compound I-244, N2-[3-(2-N,N-Diethylaminoethyl)aminosulfonylphenyl)-5-fluoro-N4-[3-methyl-4-(5-methylisoxazol-3-yl)methyleneoxyphenyl]-2,4-pyrimidinediamine]"
2,7.51 µM,"Cc1noc(COc2ccc(Nc3nc(Nc4ccc(C)c(S(N)(=O)=O)c4)ncc3F)cc2)n1 [Compound I-259, N2-(3-Aminosulfonyl-4-methylphenyl)-5-fluoro-N4-[4-(3-methyl-1,2,4-oxadiazol-5-yl)methyleneoxyphenyl]-2,4-pyrimidinediamine]"
3,3.68 µM,"5-Fluoro-N4-[4-(3-methyl-1,2,4-oxadiazol-3-yl)methyleneoxyphenyl]-N2-[(3-N-propanamido)sulfonylphenyl)]-2,4-pyrimidinediamine [Compound I-262]"
4,3.48 µM,"Cc1ccc(Nc2ncc(F)c(Nc3cc(C)c(OCC#N)c(C)c3)n2)cc1S(N)(=O)=O [Compound I-27, N2-(3-Aminosulfonyl-4-methyl)phenyl-N4-(4-cyanomethoxy-3,5-dimethyl)phenyl-5-fluoro-2,4-pyrimidinediamine]"
